Laboratory results published in EP0500426A1, “2,6-Dimethyl-4-(4'-hydroxy-3',5'-di-t-butylphenyl)-1,4-dihydropyridine derivatives, process for their preparation and their use as free radical scavengers” (Instituto de Investigacion Y Desarrollo Quimico-Biologico …, priority 1991, dated 1992).

Assays:
[1] = system: radicaux libres; experiment: Free radical scavenger activity (test not specified)
[2] = system: canaux calciques; details: see Spanish patent n°531.033; cited from earlier work
[3] = system: neutrophiles humains; experiment: Free radical production by FMLPA-stimulated human neutrophils (cytochrome C reduction); type: cell-based; details: Neutrophil, reduced cytochrome C at 550 nm, read-out: CI50 (the source's name)
From the text: (§1) Les composés de la présente invention ont fait l'objet d'un essai de contrôle de leur aptitude à capter les radicaux libres engendrés par la membrane hépatique du rat stimulée par du Fe++/acide ascorbique (système connu pour induire une formation de radicaux libres). Les composés les plus actifs ont fait ensuite l'objet d'essais de contrôle de leur aptitude à inhiber la formation des radicaux libres par les neutrophiles humains stimulés par la N-formyl-L-méthionyl-L-leucyl-L-phénylalanine et à protéger le tissu hépatique, entretenu en culture, contre les lésions par ischémie/reperfusion.
2.- Dosage des radicaux libres dans les polymorphonucléaires.
On a isolé des neutrophiles humains chez des donneurs volontaires bien portants par centrifugation sur gradient dans du Ficol Hypaque (Pharmacia). On a mélangé 100 µl de suspension de cellules (nombre final 500 000 cellules) avec 700 µl de solution physiologique tamponnée au phosphate et 50 µl des composés expérimentaux en solution dans du DMSO. On a utilisé comme témoin positif 25 µl d'une solution à 1 mg par ml de superoxyde dismutase dans du DMSO (à savoir 25 µg de SOD). On a préincubé les tubes à 37°C pendant 10 minutes sous agitation lente.
On a stimulé les neutrophiles par addition de 100 µl de cytochrome C type VI (1 mM) (Sigma) dans de la solution physiologique tamponnée au phosphate, de 50 µl de N-formyl-L-méthionyl-L-leucyl-L-phénylalanine (FMPLA) (10 µM) (Sigma F 3506) et par incubation pendant 5 minutes à 37°C. Après refroidissement à 0°C pour arrêter la réaction, on a centrifugé les tubes à 8000 xg et on a déterminé par spectrophotométrie à 550 nm le cytochrome C réduit, en utilisant des tubes contenant du SOD comme témoins.

[4] = system: membrane hépatique du rat; experiment: Free radical scavenging in rat liver membranes: lipid peroxidation induced by Fe++/ascorbic acid, thiobarbituric acid-reactive substances; type: biochemical; details: 45 minutes at 37°C, substances reacting with ATB, read-out: CI50 (the source's name)
Protocol: Les composés de la présente invention ont fait l'objet d'un essai de contrôle de leur aptitude à capter les radicaux libres engendrés par la membrane hépatique du rat stimulée par du Fe++/acide ascorbique (système connu pour induire une formation de radicaux libres).
1.- Activité de captage des radicaux libres dans la membrane hépatique du rat.
On a préparé des homogènats de foie de rat (1/10 p/v) dans du Ringer-Tris (50mM)-saccharose ([…]) de pH 7,4, après sacrifice de rats Wistar au moyen de CO2. On a découpé les foies en petits morceaux (1 à 2 mm) et on les a homogénéisés à 0°C dans un homogénéisateur Polytron. On a centrifugé les homogénats à 1000 x g pendant 10 minutes à 4°C et rejeté le culot. On a centrifugé le surnageant à 10 000 x g pendant 20 minutes et recueilli le culot, puis on l'a remis en suspension, dans le rapport 1/10, dans du Ringer-Tris (50 mM). On a utilisé des échantillons de la préparation immédiatement et on en a conservé à -20°C. […] Après 45 minutes à 37°C, on a ajouté 1 ml d'une solution contenant 0,5% d'acide thiobarbiturique (ATB) dans de l'acide trichloroacétique (ATC) à 20% dans chaque tube et après 15 minutes d'incubation à 95°C, on a déterminé par spectrophotométrie les substances réagissant avec l' A TB. On a réalisé pour toutes les expériences des témoins appropriés exempts du médicament.

[5] = system: tissu hépatique; experiment: Ischemia/reperfusion in short-term organ culture of rat liver, malonaldehyde by thiobarbituric acid reaction; type: cell-based, rats Wistar; details: 1 h, concentration inhibiting malonaldehyde production by 50%, 60 minutes ischemic anoxia, 60 minutes reoxygenation, read-out: CI50 (the source's name)
From the text: as §1
3.- Ischémie/reperfusion dans une culture d'organe à court terme.
Pour ces études, on a prélevé des échantillons de tissu dans des groupes de 10 rats Wistar mâles anesthésiés au pentobarbital sodique (60 mg par kg, i.p.). On a isolé les foies et on les a divisés en cinq échantillons d'environ 0,4 g qu'on a pesés et transférés dans des fioles d'Erlenmeyer de 50 ml bouchées contenant de la solution de Tris-Ringer saturée d'argon (anoxique).
On a purgé à l'argon les fioles d'Erlenmeyer de 50 ml contenant les échantillons du tissu et 3,9 ml de tampon de Tris-Ringer traité à l'argon, on les a rebouchées et on les a conservées au bain-marie à 37°C sans agitation pendant 50 minutes pour provoquer l'ischémie. La subdivision du tissu et l'agitation ont été évitées à ce stade pour réduire au minimum la diffusion des métabolites depuis le tissu jusque dans le milieu, qui n'aurait pu se faire au cours d'une ischémie in vivo.
Division du tissu et addition du médicament.
Après 50 minutes d'ischémie, on a divisé les tissus avec des ciseaux d'ophtalmologie en fragments d'environ 1 mm de côté. Du fait que l'argon est plus dense que l'air, son déplacement hors de la fiole et son remplacement par l'oxygène sont restés minimaux pendant le découpage et l'addition ultérieure du médicament. Ensuite, on a ajouté 0,1 ml de tampon de Tris-Ringer contenant l'un des composés à évaluer ou de l'hydroxy- toluène butylé (HTB), pour arriver à la concentration finale souhaitée; on a sélectionné l'hydroxytoluène butylé du fait que c'est un antioxydant classique qui gêne la propagation en chaîne des radicaux. On a procédé à ces additions avec rapidité pour éviter d'introduire de l'oxygène. On a rebouché les fioles et on les a secouées modérément pour mélanger le tissu avec le médicament, puis on les a remises au bain-marie pendant 10 minutes pour la mise a l'équilibre avant la réoxygénation.
Après 60 minutes d'anoxie ischémique, on a réoxygéné les fioles par barbotage vif d'oxygène gazeux à 100% dans les échantillons pendant 1 minute et par purge de la phase gazeuse avec de l'oxygène (de l'argon remplaçant l'oxygène à ce stade dans les expériences témoins d'ischémie sans réoxygénation). […]

CCOC(=O)C1=C(C)NC(C)=C(C(=O)OC)C1c1cc(OC)c(O)c(OC)c1 (centres unmarked)
activité comme capteur de radicaux libres [1]: intéressante activité
activité de blocage des canaux calciques [2]: pratiquement exempt

CCOC(=O)C1=C(C)NC(C)=C(C(=O)OC)C1c1cc(C(C)(C)C)c(O)c(C(C)(C)C)c1 (centres unmarked) [Exemple 1, 2,6-Diméthyl-4-(4'-hydroxy-3',5'-di-t-butylphényl)-1,4-dihydropyridine-3,5-dicarboxylatede méthyle et d'éthyle]
IC50 [3]: 10.9 µM
IC50 [4]: 0.78 µM
IC50 [5]: 0.17 µM

CCOC(=O)C1=C(C)NC(C)=C(C(=O)OC(C)C)C1c1cc(C(C)(C)C)c(O)c(C(C)(C)C)c1 (centres unmarked) [Exemple 2, 2,6-diméthyl-4-(4'-hydroxy-3',5'-di-t-butylphényl)-1,4-dihydropyridine-3,5-dicarboxylate d'éthyle et d'isopropyle]
IC50 [3]: 10.2 µM
IC50 [4]: 0.29 µM
IC50 [5]: 0.2 µM

COC(=O)C1=C(C)NC(C)=C(C(=O)OC)C1c1cc(C(C)(C)C)c(O)c(C(C)(C)C)c1 [Exemple 3, 2,6-Diméthyl-4-(4'-hydroxy-3',5'-di-t-butylphényl)-1,4-dihydropyridine-3,5-dicarboxylatede diméthyle]
IC50 [4]: 1.25 µM

CCOC(=O)C1=C(C)NC(C)=C(C(=O)OCC2COC(C)(C)O2)C1c1cc(C(C)(C)C)c(O)c(C(C)(C)C)c1 (centres unmarked) [Exemple 4, 2,6-diméthyl-4-(4'-hydroxy-3',5'-di-t-butylphényl)-1,4-dihydropyridine-3,5-dicarboxylate d'éthyle etde (2,2-diméthyl-1,3-dioxolan-4-yl)méthyle]
IC50 [4]: 1.25 µM

CCOC(=O)C1=C(C)NC(C)=C(C(=O)OCC(O)CO)C1c1cc(C(C)(C)C)c(O)c(C(C)(C)C)c1 (centres unmarked) [Exemple 5, 2,6-diméthyl-4-(4'-hydroxy-3',5'-di-t-butyl-phényl)-1,4-dihydropyridine-3,5-dicarboxylate d'éthyle etde 2,3-dihydroxypropyle]
IC50 [4]: 50 µM

CCOC(=O)C1=C(C)NC(C)=C(C(=O)OCCN(C)Cc2ccccc2)C1c1cc(C(C)(C)C)c(O)c(C(C)(C)C)c1 (centres unmarked) [Exemple 6, chlorhydratede 2,6-diméthyl-4-(4'-hydroxy-3',5'-di-t-butylphényl)-1,4-dihydropyridine-3,5-dicarboxylate d'éthyle etde 2-(N-méthyl-N-benzylamino)éthyle]
IC50 [4]: 20 µM

CCOC(=O)C1=C(C)NC(C)=C(C(=O)OCCNC)C1c1cc(C(C)(C)C)c(O)c(C(C)(C)C)c1 (centres unmarked) [Exemple 7, chlorhydratede 2,6-diméthyl-4-(4'-hydroxy-3',5'-di-t-butylphényl)-1,4-dihydropyridine-3,5-dicarboxylate d'éthyle etde 2-(méthylamino)éthyle]
IC50 [4]: 2.5 µM

CCOC(=O)C1=C(C)NC(C)=C(C(=O)OCc2ccccc2)C1c1cc(C(C)(C)C)c(O)c(C(C)(C)C)c1 (centres unmarked) [Exemple 8, 2,6-diméthyl-4-(4'-hydroxy-3',5'-di-t-butylphényl)-1,4-dihydropyridine-3,5-dicarboxylate d'éthyle etde benzyle]
IC50 [4]: 1 µM

CCOC(=O)C1=C(C)NC(C)=C(C(=O)O)C1c1cc(C(C)(C)C)c(O)c(C(C)(C)C)c1 (centres unmarked) [Exemple 9, 2,6-diméthyl-4-(4'-hydroxy-3',5'-di-t-butylphényl)-5-carbéthoxy-3-carboxy-1,4-dihydropyridine]
IC50 [4]: 2.5 µM

CCOC(=O)C1=C(C)NC(C)=C(C(=O)OCC(C)C)C1c1cc(C(C)(C)C)c(O)c(C(C)(C)C)c1 (centres unmarked) [Exemple 10, 2,6-diméthyl-4-(4'-hydroxy-3',5'-di-t-butylphényl)-1,4-dihydropyridine-3,5-dicarboxylate d'éthyle et d'isobutyle]
IC50 [3]: 10.5 µM
IC50 [4]: 0.37 µM
IC50 [5]: 0.2 µM

CC1=C(C(=O)OCC(C)C)C(c2cc(C(C)(C)C)c(O)c(C(C)(C)C)c2)C(C(=O)OCC(C)C)=C(C)N1 [Exemple 11, 2,6-diméthyl-4-(4'-hydroxy-3',5'-di-t-butylphényl)-1,4-dihydropyridine-3,5-dicarboxylatede diisobutyle]
IC50 [4]: 1 µM

Cc1cc(C(C)(C)C)c(O)c(C(C)(C)C)c1 [HTB, hydroxytoluène butylé, reference compound]
IC50 [3]: 20 µM
IC50 [4]: 1.5 µM
IC50 [5]: 1.75 µM

Cc1c(C)c2c(c(C)c1O)CCC(C)(CCCC(C)CCCC(C)CCCC(C)C)O2 (stereo not drawn) [α-Tocophérol, reference compound]
IC50 [4]: 15 µM
